{"source": "patent US11542240B2", "about": "“STK19 inhibitors for treatment of cancer” (TRUSTEES OF BOSTON UNIVERSITY, priority 2018, dated 2023)", "key": {"[1]": {"target": "T1, STK19 (Homo sapiens (Human), UniProt P49842)", "T1 sequence (P49842 other isoform, or with tags, fused parts or gaps)": "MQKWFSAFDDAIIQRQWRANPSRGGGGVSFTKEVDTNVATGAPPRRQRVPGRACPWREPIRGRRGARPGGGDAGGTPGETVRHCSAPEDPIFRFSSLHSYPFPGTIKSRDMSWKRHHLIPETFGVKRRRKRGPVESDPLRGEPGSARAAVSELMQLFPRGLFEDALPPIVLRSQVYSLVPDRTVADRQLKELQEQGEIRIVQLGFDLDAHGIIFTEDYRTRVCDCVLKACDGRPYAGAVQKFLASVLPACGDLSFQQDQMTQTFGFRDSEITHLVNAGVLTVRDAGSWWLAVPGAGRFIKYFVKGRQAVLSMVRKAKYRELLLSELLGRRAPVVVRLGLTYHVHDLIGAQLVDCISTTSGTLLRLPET", "experiment": "STK19 kinase inhibitory activity, ADP-Glo kinase assay with NRAS substrate", "type": "biochemical"}, "[2]": {"experiment": "tolerability study in C57BL/6J mice (body weight, blood chemistry, H&E histology)"}, "[3]": {"test_system": "UACC62 cells", "experiment": "caspase activity assay (apoptosis), 4 days", "type": "cell-based, human", "settings": "UACC62, 4 days"}, "[4]": {"test_system": "UACC62 cells", "experiment": "immunoblots of NRAS phosphorylation and NRAS signaling", "type": "cell-based, human", "settings": "UACC62 (NRASWT, BRAFV600E)"}, "[5]": {"test_system": "SK-MEL-2 cells", "type": "cell-based, human", "text": "(§1) In addition, the inventors investigated the growth inhibitory effects of IV in melanoma cells with different NRAS and BRAF status, including A375 and UACC62 (NRASWT, BRAFV600E), and SK-MEL-2 and WM2032 (NRASQ61R, BRAFWT).\n(§2) To further confirm the pharmacological effects of IV derive from STK19 inhibition and not G9a inhibition, the inventors investigated the role of G9a in NRAS signaling activation. G9a was silenced by G9a-specific shRNA or inhibited by a specific inhibitor, A-366, in SK-MEL-2 and WM2032 melanoma cells. […] In summary, ZT-12-037-01 (IV) is a specific STK19-targeted inhibitor to block oncogenic NRAS-driven melanocyte malignant transformation and melanoma growth."}, "[6]": {"test_system": "WM2032 cells", "type": "cell-based, human", "text": "as §1, §2"}, "[7]": {"target": "STK19D89N (Homo sapiens (Human), UniProt P49842, D89N)", "sequence (P49842 other isoform, or with tags, fused parts or gaps D89N)": "as the sequence (P49842 other isoform, or with tags, fused parts or gaps) above, with D89N counted along it", "experiment": "STK19 kinase assay, D89N mutant", "settings": "read-out: IC50 for STK19D89N"}, "[8]": {"target": "T1, STK19", "experiment": "thermal denaturation curve shift of STK19", "settings": "read-out: shift in the melting temperature of STK19"}, "[9]": {"settings": "blood chemistry in tolerability studies"}}, "note": "Read-outs that look alike come from different tables or passages of the source.", "data": [{"smiles": "COc1cc2nc(NC3CC3)nc(NC3CCN(C(C)C)CC3)c2cc1OC", "note": "[Formula IV]", "values": [{"measurement": "inhibition at 10 µM", "setting": "[1]", "value": 84, "unit": "%"}, {"measurement": "IC50", "setting": "[1]; STK19WT, read-out: IC50 for STK19WT", "value": 0.024, "unit": "µM"}, {"measurement": "IC50", "setting": "[1]; STK19 kinase, read-out: IC50 (nm)", "value": 0.024, "unit": "µM"}, {"measurement": "mode of inhibition (IC50 against STK19 at increasing ATP concentrations)", "setting": "[1]; different ATP concentrations", "value": "ATP-competitive inhibitor"}, {"measurement": "IC50", "setting": "[1]; measured as percentage of NRAS phosphorylation, read-out: IC50, inhibitory activity against STK19", "value": 0.024, "unit": "µM"}, {"measurement": "serum transaminase levels", "setting": "[2]; C57BL/6J mice", "value": "did not affect"}, {"measurement": "mouse weight", "setting": "[2]; C57BL/6J mice, 25 mg/kg BID for 15 days", "value": "did not affect"}, {"measurement": "histology of mouse tissues", "setting": "[2]; C57BL/6J mice, 25 mg/kg BID for 15 days, H&E", "value": "did not affect"}, {"measurement": "Alanine aminotransferase (ALT)", "setting": "[2]; [9]", "value": "27.6 ± 5.6", "unit": "U/L"}, {"measurement": "Albumin (ALB)", "setting": "[2]; [9]", "value": "28.3 ± 2.7", "unit": "g/L"}, {"measurement": "Alkaline phosphatase (ALP)", "setting": "[2]; [9]", "value": "3.9 ± 1.7", "unit": "U/L"}, {"measurement": "Aspartate aminotransferase (AST)", "setting": "[2]; [9]", "value": "54.4 ± 9.4", "unit": "U/L"}, {"measurement": "Creatinine (CRE)", "setting": "[2]; [9]", "value": "17.7 ± 4.2", "unit": "µmol/L"}, {"measurement": "Lactic dehydrogenase (LDH)", "setting": "[2]; [9]", "value": "247.3 ± 41.0", "unit": "U/L"}, {"measurement": "Phosphorus (P)", "setting": "[2]; [9]", "value": "1.67 ± 0.39"}, {"measurement": "Total bilirubin (T-Bil)", "setting": "[2]; [9]", "value": "2.68 ± 0.44", "unit": "µmol/L"}, {"measurement": "Total protein (TP)", "setting": "[2]; [9]", "value": "50.9 ± 2.5", "unit": "g/L"}, {"measurement": "apoptosis", "setting": "[3]", "value": "reduced impact"}, {"measurement": "NRAS signaling, including MEK-ERK and PI3K pathways", "setting": "[4]", "value": "much less effective"}, {"measurement": "NRAS signaling, including MEK-ERK and PI3K pathways", "setting": "[5]; SK-MEL-2 (NRASQ61R)", "value": "effectively inhibited"}, {"measurement": "NRAS phosphorylation and activity", "setting": "[5]; SK-MEL-2, IV 100 nM and 300 nM", "value": "effectively decreased"}, {"measurement": "H3K9 methylation", "setting": "[5]; SK-MEL-2, IV up to 300 nM", "value": "no obvious effects"}, {"measurement": "IV-mediated inhibition of oncogenic NRAS signaling after introduction of IV-resistant STK19 V134Y or L139F", "setting": "[5]; SK-MEL-2 cells", "value": "rescued"}, {"measurement": "NRAS signaling, including MEK-ERK and PI3K pathways", "setting": "[6]; WM2032 (NRASQ61R)", "value": "effectively inhibited"}, {"measurement": "NRAS phosphorylation and activity", "setting": "[6]; WM2032, IV 100 nM and 300 nM", "value": "effectively decreased"}, {"measurement": "H3K9 methylation", "setting": "[6]; WM2032, IV up to 300 nM", "value": "no obvious effects"}, {"measurement": "IC50", "setting": "[7]", "value": 0.0279, "unit": "µM"}, {"measurement": "ΔTm at 100 µM", "setting": "[8]", "value": 6.8, "unit": "°C"}]}]}
